This is an account of results in patent US10155802B2, “Locally-active anticoagulants and anti-inflammatory agents” (priority 2011, dated 2018).

For one assay, the target named is T1, Human α-thrombin (Homo sapiens, UniProt P00734).
T1 construct: Human α-thrombin was purchased from Haemotologic Technologies, Inc., VT, USA; purchased Haemotologic Technologies, Inc., VT, USA
Description: Inhibition of thrombin-catalyzed hydrolysis of chromogenic substrate S-2366 (inhibition constant Ki). It counts as biochemical.

The target of another assay is thrombin (Homo sapiens, UniProt P00734). Kind of assay: Cleavage of thrombin-sensitive peptides catalyzed by thrombin, followed by HPLC. Also noted: rapidly converts prothrombin into the ultimate protease thrombin. Conditions: 75 μM peptide, 23 nM thrombin, pH 7.6, 37° C. It counts as biochemical.

SMILES strings stand for the structures. Values joined by “and” are separate entries in the source; they are usually repeats but may differ in a detail not shown here. Identical values can stand only once.

`CC[C@H](C)[C@H](NC(=O)[C@H](CCC(=O)O)NC(=O)[C@H](CCC(=O)O)NC(=O)[C@H](Cc1ccccc1)NC(=O)[C@H](CC(=O)O)NC(=O)CNC(=O)[C@H](CCC(=O)O)NC(=O)[C@@H](NC(=O)[C@H](Cc1c[nH]c2ccccc12)NC(=O)[C@@H](NC(=O)[C@H](Cc1c[nH]c2ccccc12)NC(=O)[C@@H](NC(=O)[C@H](CCCCN)NC(=O)[C@@H](NC(=O)[C@H](C)NC(=O)[C@H](CC(=O)O)NC(=O)[C@H](CC(=O)O)NC(=O)[C@H](Cc1c[nH]c2ccccc12)NC(=O)[C@@H](NC(=O)[C@H](Cc1c[nH]c2ccccc12)NC(=O)[C@H](CCC(=O)O)NC(=O)CNC(=O)[C@H](CC(=O)O)NC(=O)[C@@H](NC(=O)[C@H](Cc1ccccc1)NC(=O)[C@H](CCCNC(=N)N)NC(=O)[C@@H]1CCCN1C(=O)[C@H](CCCNC(=N)N)NC(=O)[C@@H]1CCCN1C(=O)[C@H](N)Cc1ccccc1)[C@@H](C)O)[C@@H](C)O)[C@@H](C)O)[C@@H](C)O)[C@@H](C)O)[C@@H](C)O)C(=O)N1CCC[C@H]1C(=O)N[C@@H](CCC(=O)O)C(=O)N[C@@H](CCC(=O)O)C(=O)N[C@@H](Cc1ccc(O)cc1)C(=O)N[C@@H](CC(C)C)C(=O)O` [BRI-T208]: at Human α-thrombin, the “reduction of Ki as compared to BRI-T207” value is “about 13 fold” and the “reduction of Ki as compared to MH2-wZIP4” value is “approximately 5 fold”. For the same compound, the Ki (as a rule, the dissociation constant of the complex between target and ligand, obtained from inhibition or displacement) on Human α-thrombin (Ki, T = 37° C., enzyme kinetics, chromogenic substrate) is ~28 nM and 28 nM. Moreover, the cleavage by thrombin entry on thrombin is “significantly more resistant to thrombin cleavage than BRI-T218”.
